{"source": "patent US20120277109A1", "about": "“PROXIMITY-MEDIATED ASSAYS FOR DETECTING ONCOGENIC FUSION PROTEINS” (Prometheus Laboratories Inc., priority 2009, published 2012)", "key": {"[1]": {"tested_on": "patients with chronic myelogenous leukemia (CML)", "conditions": "cited from earlier work"}, "BCR-ABL substrate CRKL": {"tested_on": "BCR-ABL substrate CRKL", "assay": "Sandwich ELISA of total and activated (phosphorylated) CRKL in cancer cell lines after growth factor treatment", "assay_type": "cell-based, human"}, "[2]": {"conditions": "400 mg/day imatinib, after 7 years"}}, "note": "Where two headings read alike, the source gives them in different places."}
{"molecule": "Cc1ccc(NC(=O)c2ccc(CN3CCN(C)CC3)cc2)cc1Nc1nccc(-c2cccnc2)n1", "note": "[imatinib]", "values": [{"measurement": "complete cytogenetic response (CCyR)", "setting": "[1]; 400 mg/day imatinib, % of patients", "result": "70-80%"}, {"measurement": "even free survival rate", "setting": "[1]; [2]", "result": 81, "unit": "%"}, {"measurement": "overall survival rate", "setting": "[1]; [2]", "result": 90, "unit": "%"}, {"measurement": "relapse rate", "setting": "[1]; 400 mg/day imatinib, in 5 years", "result": "about 30%"}, {"measurement": "loss of CCyR rate", "setting": "[1]; 400 mg/day imatinib, in the first 3 years", "result": "4 to 7", "unit": "%/yr"}, {"measurement": "loss of CCyR rate", "setting": "[1]; 400 mg/day imatinib, thereafter (after first 3 years)", "result": "1 to 2", "unit": "%/yr"}, {"measurement": "toxicity", "setting": "[1]; 800 mg/day imatinib compared with 400 mg/day", "result": "more toxic"}, {"measurement": "CCyR", "setting": "[1]; 800 mg/day imatinib", "result": 95, "unit": "%"}, {"measurement": "relapse rate", "setting": "[1]; 800 mg/day imatinib", "result": 5, "unit": "%"}, {"measurement": "patients who do not achieve durable complete cytogenetic responses", "setting": "[1]; first line therapy, newly diagnosed patients with CML", "result": "20-25%"}]}
{"molecule": "Cc1cn(-c2cc(NC(=O)c3ccc(C)c(Nc4nccc(-c5cccnc5)n4)c3)cc(C(F)(F)F)c2)cn1", "note": "[nilotinib]", "values": [{"measurement": "toxicity", "setting": "[1]; nilotinib compared with imatinib", "result": "more toxic than imatinib"}]}
{"molecule": "epidermal growth factor [EGF, stimulatory growth factor]", "values": [{"measurement": "CRKL activation (i.e., phosphorylation) upon treatment", "setting": "BCR-ABL substrate CRKL; A431 cells", "result": "activated"}, {"measurement": "CRKL activation (i.e., phosphorylation) upon treatment", "setting": "BCR-ABL substrate CRKL; T47D cells", "result": "not activated"}]}
{"molecule": "heregulin", "values": [{"measurement": "CRKL activation (i.e., phosphorylation) upon treatment", "setting": "BCR-ABL substrate CRKL; MCF-7 cells", "result": "activated (i.e., phosphorylated) at low levels"}, {"measurement": "CRKL activation (i.e., phosphorylation) upon treatment", "setting": "BCR-ABL substrate CRKL; T47D cells", "result": "activated (i.e., phosphorylated) at low levels"}]}
